Assay results reported in paper PMC11277476, “Synthesis and Biological Evaluation of Novel 2-Aroyl Benzofuran-Based Hydroxamic Acids as Antimicrotubule Agents” (International Journal of Molecular Sciences, 2024).

Experiments:
bovine brain tubulin = assay: Inhibition of tubulin polymerization (turbidimetric); format: biochemical; conditions: tubulin at 10 μM; 20 min incubation at 30 °C; read-out: Tubulin Assembly IC50 ± SD
Protocol: (§1) Bovine brain tubulin was purified as described previously. To evaluate the effects of the compounds on tubulin assembly in vitro [77], varying concentrations were preincubated with 10 μM tubulin in 0.8 M monosodium glutamate (pH 6.6) at 30 °C, and the reaction mixtures were then cooled to 0 °C. After addition of GTP, the mixtures were transferred to 0 °C cuvettes in Beckman Coulter (Brea, CA, USA) DU-7400/DU-7500 recording spectrophotometers equipped with electronic temperature controllers and were warmed to 30 °C, and the assembly of tubulin was observed turbidimetrically. […] Inhibition of colchicine binding to tubulin was measured as described before, except that the reaction mixtures contained 0.5 μM tubulin and 5 μM each of [^3H]colchicine and test compound. Only one DEAE-cellulose filter was used per sample, and filtration was via gravity.

A549 cells = assay: In vitro growth inhibition (resazurin, 72 h), A549; format: cell-based; conditions: Homo sapiens, mean ± SE
MCF-7 cells = assay: In vitro growth inhibition (resazurin, 72 h), MCF-7; format: cell-based; conditions: Homo sapiens, MCF7, mean ± SE
human recombinant HDAC8 = target: T1, human recombinant HDAC8 (Homo sapiens, UniProt Q9BY41); assay: HDAC isoform inhibition, fluorogenic substrate, HDAC8; format: biochemical; conditions: mean ± SE, read-out: IC50 (µM) hHDAC8
T1 construct: purchased BPS Bioscience 50008
T1 sequence (Q9BY41 1-377): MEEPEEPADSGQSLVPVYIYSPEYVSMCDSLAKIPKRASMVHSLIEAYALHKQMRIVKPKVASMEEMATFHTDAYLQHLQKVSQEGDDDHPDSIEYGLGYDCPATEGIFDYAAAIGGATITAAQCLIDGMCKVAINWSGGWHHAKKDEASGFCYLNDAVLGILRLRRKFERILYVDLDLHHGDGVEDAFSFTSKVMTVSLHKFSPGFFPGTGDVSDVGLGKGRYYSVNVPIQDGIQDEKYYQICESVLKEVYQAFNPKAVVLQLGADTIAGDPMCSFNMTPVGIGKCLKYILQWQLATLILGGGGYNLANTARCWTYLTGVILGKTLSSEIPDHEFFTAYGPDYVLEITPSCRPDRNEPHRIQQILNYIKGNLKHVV
Protocol: (§2) Further experiments were also carried out to evaluate the inhibitory activities of test compounds on selected HDAC isoforms. […] Following an incubation of 15 min at RT, fluorescence was measured in an EnSight multimodal plate reader (PerkinElmer, Boston, MA, USA) with an excitation wavelength of 360 nm and an emission wavelength of 450 nm.

human recombinant HDAC1 = target: T2, human recombinant HDAC1 (Homo sapiens, UniProt Q13547); assay: HDAC isoform inhibition, fluorogenic substrate, HDAC1; format: biochemical; conditions: mean ± SE, read-out: IC50 (µM) hHDAC1
T2 construct: purchased BPS Bioscience 50051
T2 sequence (Q13547 whole entry, canonical isoform): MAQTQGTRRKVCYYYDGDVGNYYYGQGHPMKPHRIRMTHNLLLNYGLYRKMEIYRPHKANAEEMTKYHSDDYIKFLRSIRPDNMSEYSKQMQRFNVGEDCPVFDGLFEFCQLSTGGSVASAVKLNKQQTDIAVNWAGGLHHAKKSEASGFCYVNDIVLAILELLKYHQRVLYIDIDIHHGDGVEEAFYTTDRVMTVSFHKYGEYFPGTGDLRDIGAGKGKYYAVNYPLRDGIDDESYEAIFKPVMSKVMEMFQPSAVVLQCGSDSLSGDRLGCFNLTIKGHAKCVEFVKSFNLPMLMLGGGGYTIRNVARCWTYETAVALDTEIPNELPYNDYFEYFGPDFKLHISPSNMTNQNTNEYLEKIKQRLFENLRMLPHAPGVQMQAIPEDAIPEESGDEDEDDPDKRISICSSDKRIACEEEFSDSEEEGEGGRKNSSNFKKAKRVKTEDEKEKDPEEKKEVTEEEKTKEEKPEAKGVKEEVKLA
Protocol: as §2

HeLa cells = assay: In vitro growth inhibition (resazurin, 72 h), HeLa; format: cell-based; conditions: Homo sapiens, concentration inhibiting tumor cell proliferation by 50%, mean ± SE
[1] = tested on: tubulin (colchicine site); assay: Inhibition of [3H]colchicine binding to tubulin; parameters: species or system bovine; conditions: tubulin 0.5 µM, [3H]colchicine 5 µM, tested compound 5 µM
Protocol: as §1

MDA-MB-231 cells = assay: In vitro growth inhibition (resazurin, 72 h), MDA-MB-231; format: cell-based; conditions: Homo sapiens, mean ± SE
human recombinant HDAC10 = target: T3, human recombinant HDAC10 (Homo sapiens, UniProt Q969S8); assay: HDAC isoform inhibition, fluorogenic substrate, HDAC10; format: biochemical; conditions: mean ± SE, read-out: IC50 (µM) hHDAC10
T3 construct: purchased BPS Bioscience 50060
T3 sequence (Q969S8 1-669): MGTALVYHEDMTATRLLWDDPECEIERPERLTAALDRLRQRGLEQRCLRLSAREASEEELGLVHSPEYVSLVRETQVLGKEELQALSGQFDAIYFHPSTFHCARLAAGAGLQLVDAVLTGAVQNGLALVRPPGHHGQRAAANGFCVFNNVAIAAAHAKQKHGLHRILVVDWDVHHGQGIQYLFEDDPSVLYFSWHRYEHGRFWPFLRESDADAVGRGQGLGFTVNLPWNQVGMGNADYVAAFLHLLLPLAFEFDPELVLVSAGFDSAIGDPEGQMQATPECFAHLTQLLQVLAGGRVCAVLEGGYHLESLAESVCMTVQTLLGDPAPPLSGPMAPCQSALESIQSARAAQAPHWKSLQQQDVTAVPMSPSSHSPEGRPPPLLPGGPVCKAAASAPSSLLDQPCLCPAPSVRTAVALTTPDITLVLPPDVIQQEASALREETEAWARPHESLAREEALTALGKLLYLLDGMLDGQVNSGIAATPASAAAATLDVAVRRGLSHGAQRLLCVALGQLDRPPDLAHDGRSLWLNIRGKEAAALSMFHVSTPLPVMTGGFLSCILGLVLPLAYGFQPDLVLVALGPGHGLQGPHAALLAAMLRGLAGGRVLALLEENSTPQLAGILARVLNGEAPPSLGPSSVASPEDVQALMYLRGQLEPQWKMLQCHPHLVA
Protocol: as §2

human recombinant HDAC6 = target: T4, human recombinant HDAC6 (Homo sapiens, UniProt Q9UBN7); assay: HDAC isoform inhibition, fluorogenic substrate, HDAC6; format: biochemical; conditions: mean ± SE, read-out: IC50 (µM) hHDAC6
T4 construct: purchased BPS Bioscience 50056
T4 sequence (Q9UBN7 1-1215): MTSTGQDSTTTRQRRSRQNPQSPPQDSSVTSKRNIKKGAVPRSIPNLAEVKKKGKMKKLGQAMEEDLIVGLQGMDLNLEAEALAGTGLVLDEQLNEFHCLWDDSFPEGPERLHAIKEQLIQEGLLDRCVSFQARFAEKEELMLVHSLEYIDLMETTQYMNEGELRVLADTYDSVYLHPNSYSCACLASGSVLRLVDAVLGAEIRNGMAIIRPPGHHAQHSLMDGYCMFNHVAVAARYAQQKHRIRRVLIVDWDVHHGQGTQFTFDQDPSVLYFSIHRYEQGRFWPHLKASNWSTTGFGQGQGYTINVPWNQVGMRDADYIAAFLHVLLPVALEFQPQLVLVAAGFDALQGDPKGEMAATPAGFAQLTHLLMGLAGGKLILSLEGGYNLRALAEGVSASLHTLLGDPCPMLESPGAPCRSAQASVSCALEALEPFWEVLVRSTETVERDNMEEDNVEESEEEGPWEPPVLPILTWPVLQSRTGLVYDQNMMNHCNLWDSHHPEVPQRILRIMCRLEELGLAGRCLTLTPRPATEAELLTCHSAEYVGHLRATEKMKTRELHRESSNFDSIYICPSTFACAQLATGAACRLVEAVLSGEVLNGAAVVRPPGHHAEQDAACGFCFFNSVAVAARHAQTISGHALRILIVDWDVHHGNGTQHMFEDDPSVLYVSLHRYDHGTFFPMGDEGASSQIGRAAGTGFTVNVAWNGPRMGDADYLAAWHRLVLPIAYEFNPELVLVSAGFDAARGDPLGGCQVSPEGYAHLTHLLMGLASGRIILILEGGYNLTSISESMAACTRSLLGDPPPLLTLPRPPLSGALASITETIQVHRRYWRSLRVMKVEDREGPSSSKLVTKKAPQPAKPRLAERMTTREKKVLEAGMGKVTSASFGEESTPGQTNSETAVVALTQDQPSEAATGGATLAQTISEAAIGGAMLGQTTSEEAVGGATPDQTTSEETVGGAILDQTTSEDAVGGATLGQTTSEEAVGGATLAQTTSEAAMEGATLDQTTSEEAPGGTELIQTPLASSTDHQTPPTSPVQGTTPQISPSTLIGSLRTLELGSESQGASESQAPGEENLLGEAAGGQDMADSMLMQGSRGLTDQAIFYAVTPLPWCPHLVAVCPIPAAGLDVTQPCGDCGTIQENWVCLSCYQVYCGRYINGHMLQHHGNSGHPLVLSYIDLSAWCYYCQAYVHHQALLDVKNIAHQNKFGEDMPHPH
Protocol: as §2

HT-29 cells [2] = assay: In vitro growth inhibition (resazurin, 72 h), HT-29; format: cell-based; conditions: Homo sapiens, mean ± SE
HT-29 cells [3] = assay: Annexin V-PI flow cytometric analysis of apoptosis, HT-29; format: cell-based, human; conditions: 96 h
Protocol: The quantification of apoptosis induced by the test compounds was carried out with flow cytometric analysis using the Annexin-V Fluos kit (Roche Diagnostics, Milan, Italy) following the manufacturer’s instructions. Cancer cells treated with the test compounds for the indicated time points and concentrations were then labeled with annexin V/FITC and PI and analyzed with BD FACS Celesta^TM Flow Cytometer (BD Bioscience, Franklin Lakes, NJ, USA) using the FL1 and FL3 channel, respectively, and FlowJo_v10.7.1 software.

HT-29 cells [4] = assay: Cell cycle analysis (PI, flow cytometry); format: cell-based, human; conditions: 250 nM for 24 h (figure legend)
Protocol: HT29 cells were treated with the indicated compounds for 24 h and then harvested and fixed in 70% ice-cold ethanol for 24 h. The cells were next treated with a 0.1% v/v solution of Triton X-100 in phosphate buffered saline (PBS) containing 10 μg/mL RNAse A and 20 μg/mL PI. The cells were incubated at room temperature for 30 min and then analyzed on a BD FACS Celesta^TM Flow Cytometer (BD Bioscience, Franklin Lakes, NJ, USA) in the FL3 channel. DNA histograms were analyzed using FlowJo_v10.7.1 software (BD Bioscience, Franklin Lakes, NJ, USA).

[5] = tested on: acetylated histone H3 (Ac-H3K9) in HT-29 cells; assay: Western blot of acetylated histone H3 (Ac-H3K9) in HT-29 cells; format: cell-based, human; conditions: 10 µM, 6 h
Protocol: HT-29 cells were treated with selected compounds for 6 h at 10 µM, lysed, and then processed as previously described.
Antibodies directed against total histone H3 and its acetylated form (Ac-H3K9) were purchased from Cell Signaling Technology, Danvers, Massachusetts, while anti-vinculin antibody was purchased from Santa Cruz Biotechnology. Membranes were visualized using ECL select (GE Healthcare), and images were acquired using the iBright FL1500 Imaging System (Thermo Fisher Scientific, Waltham, MA, USA). Anti-vinculin (1:25,000, Santa Cruz Biotechnology, Dallas, TX, USA) was used as loading controls.

[6] = tested on: human peripheral blood mononuclear cells (PBMC), not stimulated with PHA; assay: Cytotoxicity in resting PBMC (resazurin, 72 h); format: cell-based; conditions: mean ± SEM
Description: (§3) Peripheral blood mononuclear cells (PBMC), obtained from human peripheral blood (leucocyte-rich plasma-buffy coats) of healthy volunteers using a Lymphoprep^TM (Serumwerk Bernburg AG) gradient, were used for the evaluation of the cytotoxic potential of compounds in normal human cells.
(§4) After extensive washing with saline solution (Hank’s Buffer Saline Solution, BioConcept, Allschwil, Switzerland), quiescent PBMCs were resuspended (1.0 × 10^6 cells/mL) in RPMI-1640 medium supplemented with 10% FBS. To evaluate cytotoxicity in proliferating PBMCs cultures, cells were resuspended at a concentration of 5 × 10^5 cells/mL in a growth medium containing […] of PHA (Irvine Scientific, Santa Ana, CA, USA). The same cellular density was utilized for resting PBMC cultures, without the addition of PHA. The tested compounds were added at different concentrations, and after a 72 h incubation, cell viability was determined using the resazurin test as described above.

[7] = tested on: human peripheral blood mononuclear cells (PBMC) stimulated with PHA; assay: Cytotoxicity in PHA-stimulated PBMC (resazurin, 72 h); format: cell-based; conditions: mean ± SEM
Description: as §3, §4

[8] = tested on: panel of five human cancer cell lines (HeLa, MDA-MB-231, A549, HT-29, MCF-7); assay: In vitro growth inhibition, range over the panel of five cancer cell lines
Protocol: All the cell lines were purchased from the American Type Culture Collection (ATCC, Manassas, VA, USA). Drug stock solutions were prepared for each compound by dissolving them in DMSO at 10 mM.
Cancer cells were seeded in tissue treated, flat bottom, 384-well plates (Corning, Corning, NY, USA) according to their optimal density, in 27 μL of complete medium per well, using a Microlab STAR 96-CORE liquid handling system (Hamilton Bonaduz, Bonaduz, Switzerland) as described previously [75]. Each compound was tested in a 6-points 2-fold dose–response curve, and each dose was tested in duplicate within each plate, in three independent experiments. The final concentration of DMSO in the wells never exceeded 0.1%, which was the maximum concentration.
Only plates with acceptable Z-prime quality metrics (Z′ > 0.6) were further analyzed for the drug screening. Raw data were normalized according to the following equation: cell viability (%) = (x − POS)/(NEG − POS) × 100, where x is the relative fluorescence units (RFU) collected from each single well, NEG is the mean of intraplate negative controls (DMSO, corresponding to 100% cell viability), and POS is the mean of intraplate positive controls (Bortezomib 1 μΜ, equal to 0% cell viability).

IC50 (bovine brain tubulin) [µM] | IC50 (A549 cells) [nM] | IC50 (MCF-7 cells) [nM] | IC50 (human recombinant HDAC8) [µM] | IC50 (human recombinant HDAC1) [µM] | IC50 (HeLa cells) [nM] | Colchicine Binding % Inhibition ± SD [1] [%] | IC50 (MDA-MB-231 cells) [nM] | melting point [°C] | IC50 (human recombinant HDAC10) [µM] | IC50 (human recombinant HDAC6) [µM] | IC50 (HT-29 cells [2]) [nM] | SMILES | other results
1.1 ± 0.1 | 54.2 ± 2.03 | 33 ± 6 | > 30 | 13.4 ± 0.9 | 6 ± 0.05 | 86 ± 1 | 44.7 ± 3.12 | 100 to 102 | > 30 | 17.1 ± 1.2 | 7.9 ± 0.02 | COc1cccc(C(=O)c2oc3cc(OC)c(/C=C/C(=O)NO)cc3c2C)c1 [Compound 6e, (E)-N-Hydroxy-3-(6-methoxy-2-(3-methoxybenzoyl)-3-methylbenzofuran-5-yl)acrylamide] | –
1.2 ± 0.1 | 168 ± 5.31 | 24 ± 8 | – | – | 3.9 ± 0.01 | 76 ± 2 | 41.9 ± 2.33 | – | – | 6.12 ± 0.41 | 75.3 ± 3.09 | COc1cc2oc(C(=O)c3ccccc3OC)c(C)c2cc1/C=C/C(=O)NO [Compound 6f, (E)-N-Hydroxy-3-(6-methoxy-2-(2-methoxybenzoyl)-3-methylbenzofuran-5-yl)acrylamide] | induction of apoptosis / cell death (annexin V/PI), in words (HT-29 cells [3]): able to induce cell apoptosis; Percentage of HT-29 cells in G1 phase (HT-29 cells [4]): 6.12%; Percentage of HT-29 cells in G2/M phase (HT-29 cells [4]): 87.54%; Percentage of HT-29 cells in S phase (HT-29 cells [4]): 6.34%; acetylated histone H3 (Ac-H3K9) level, Western blot [5]: significantly increased acetylated histone H3 (Ac-H3K9); GI50 [6]: > 10 µM; GI50 [7]: 0.51 ± 0.1 µM
0.42 ± 0.07 | 43.9 ± 0.55 | 19 ± 1 | > 30 | > 30 | 4 ± 0.01 | 81 ± 4 | 26.9 ± 1.74 | 170 to 172 | > 30 | 12.5 ± 0.8 | 29 ± 0.01 | COc1cc(OC)cc(C(=O)c2oc3cc(OC)c(/C=C/C(=O)NO)cc3c2C)c1 [Compound 6c, (E)-3-(2-(3,5-Dimethoxybenzoyl)-6-methoxy-3-methylbenzofuran-5-yl)-N-hydroxyacrylamide] | GI50 ([8]; read-out: antiproliferative GI50 values, range over the five tumor lines): 0.004 to 0.044 µM
0.49 ± 0.1 | 18.7 ± 0.72 | 9.5 ± 0.7 | > 30 | 14.1 ± 1 | 0.4 ± 0.04 | 69 ± 0.1 | 16.1 ± 0.01 | 268 to 270 | > 30 | > 30 | 6.6 ± 0.96 | COc1cc2oc(C(=O)c3cc(OC)c(OC)c(OC)c3)c(C)c2cc1C#CC(=O)NO [Compound 11a, N-Hydroxy-3-[6-methoxy-3-methyl-2-(3,4,5-trimethoxybenzoyl)-1-benzofuran-5-yl] prop-2-ynamide] | IC50 ([8]; read-out: IC50 values, range over the cancer cell line panel): 0.0004 to 0.019 µM
